From ChEMBL document CHEMBL1201862, “PubChem BioAssay data set” (2004)
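Step 1: Grow cells in 96-well plates. Step 2: Expose to compound for 48 hours at 5 concentrations. Step 3: Interpolate endpoints linearly; if unreached, use highest concentration. At the GI50, growth is halved.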 The source made the active and inactive calls. No stated cut-off is given here; in the data, active = GI50 up to about 1.1 µM and inactive = higher.

Key:
Experiment in all cases: NCI tumour cell line growth inhibition, 48 h
[1] = system: 786-0
[2] = system: A549
[3] = system: ACHN
[4] = system: CAKI-1
[5] = system: CCRF-CEM
[6] = system: COLO 205
[7] = system: DLD-1
[8] = system: DMS-114
[9] = system: DMS-273
[10] = system: EKVX
[11] = system: HCC 2998
[12] = system: HCT-116
[13] = system: HCT-15
[14] = system: HL-60
[15] = system: HOP-18
[16] = system: HOP-62
[17] = system: HT-29
[18] = system: IGROV-1
[19] = system: K562
[20] = system: KM-20L2
[21] = system: KM12
[22] = system: LOX IMVI
[23] = system: LXFL 529
[24] = system: M14
[25] = system: M19-MEL
[26] = system: MOLT-4
[27] = system: Malme-3M
[28] = system: NCI-H226
[29] = system: NCI-H23
[30] = system: NCI-H460
[31] = system: NCI-H522
[32] = system: OVCAR-3
[33] = system: OVCAR-4
[34] = system: OVCAR-5
[35] = system: OVCAR-8
[36] = system: RPMI-8226
[37] = system: RXF 393
[38] = system: SF-268
[39] = system: SF-295
[40] = system: SK-MEL-28
[41] = system: SK-MEL-2
[42] = system: SK-MEL-5
[43] = system: SK-OV-3
[44] = system: SN12C
[45] = system: SNB-19
[46] = system: SNB-75
[47] = system: SNB-78
[48] = system: SR
[49] = system: SW-620
[50] = system: TK-10
[51] = system: U-251
[52] = system: UACC-257
[53] = system: UACC-62
[54] = system: UO-31
[55] = system: XF498

Measured: GI50

COc1cc(C2C(Cl)C(=O)N2NC(=O)Cc2ccccc2)cc(Br)c1O (stereo not given)
51.8 µM: [13]
inactive: [1] > 100 µM | [2] > 100 µM | [3] > 100 µM | [4] > 100 µM | [5] 46.1 µM | [6] > 100 µM | [7] 86.9 µM | [8] 45 µM | [9] > 100 µM | [10] 94.8 µM | [11] > 100 µM | [12] 71.4 µM | [14] 48 µM | [15] 71.6 µM | [16] > 100 µM | [17] > 100 µM | [18] > 100 µM | [19] > 100 µM | [20] > 100 µM | [21] > 100 µM | [22] 74.3 µM | [23] 86.3 µM | [24] > 100 µM | [25] > 100 µM | [26] 50.6 µM | [27] > 100 µM | [28] > 100 µM | [29] 76.9 µM | [30] 80.9 µM | [31] 56 µM | [32] 61 µM | [33] 63.5 µM | [34] > 100 µM | [35] > 100 µM | [36] 42.5 µM | [37] 92.3 µM | [38] 61 µM | [39] > 100 µM | [40] > 100 µM | [41] > 100 µM | [42] 69.8 µM | [43] > 100 µM | [44] > 100 µM | [45] > 100 µM | [46] 64.9 µM | [47] > 100 µM | [48] 56.6 µM | [49] > 100 µM | [50] > 100 µM | [51] > 100 µM | [52] > 100 µM | [53] 55 µM | [54] 64.9 µM | [55] > 100 µM
